Laboratory results taken from patent publication US9351983B2, “Use of glycerophosphoinositols for the treatment of septic shock” (CONSIGLIO NAZIONALE DELLE RICERCHE, priority 2012, dated 2016).

What was measured:
Type in all cases: cell-based, human
[1] = tested on: LPS-mediated gene transcription of TNFα; test: Real-time RT-PCR of TNFα mRNA in LPS-stimulated monocytes; settings: 300 μM, 0.1 μg/ml LPS for 1.5 h or 24 h
Method: (§1) FIG. 4—The glycerophosphoinositols inhibit LPS-mediated gene transcription of TNFα, IL-1β and COX-2. Human monocytes were purified from peripheral blood and incubated at 37° C. for 20 min without or with 300 μM GroPIns or GroPIns4P, and for an additional 1.5 h or 24 h in the absence and presence of 0.1 μg/ml LPS from E. coli. At each time point, RNA was extracted and converted to cDNA for real-time PCR analysis of TNFα, IL-1β and COX-2. Each sample was measured in triplicate and the data were calculated using the delta-delta method (2-DDCT). Transcription of the house-keeping gene GAPDH was used to normalise the data. Measurements of mRNA levels were expressed as fold-increase over the respective control (unstimulated) cells, and are means (±SD) of triplicates from one representative experiment of 4 experiments performed with cells from different donors. Asterisks indicate statistically significant differences (*p<0.0485; **p<0.0092).
(§2) One μg total RNA (extracted through thiocyanate/caesium chloride method) was converted to cDNA using Moloney murine leukaemia virus reverse transcriptase (Applied Biosystems, Italy). […] Each sample was measured in triplicate and the data were analysed with the SDS 2.0 software (Applied Biosystems, Italy) by the delta-delta method (2-DDCT) for comparing relative expression results. […]

[2] = tested on: LPS-mediated gene transcription of COX-2; test: Real-time RT-PCR of COX-2 mRNA in LPS-stimulated monocytes; settings: 300 μM, 0.1 μg/ml LPS for 1.5 h or 24 h
Method: as §1, §2

[3] = tested on: LPS-induced degradation of I-κBα; test: Western blotting of I-κBα in LPS-stimulated monocytes; settings: 300 μM, 0.1 μg/ml LPS for 1 h
Method: Monocytes were incubated at 37° C. for 20 min without or with 300 μM GroPIns or GroPIns4P, and for a further 1 h in the absence and presence of 0.1 μg/ml LPS. After stimulation, the cells were lysed and expression levels of I-κBα were analysed. Proteins were resolved using 10% SDS-PAGE and were probed by Western blotting, using a polyclonal anti-I-κBα antibody. The data are representative of four experiments performed with monocytes isolated from peripheral blood of different donors.
(§3) Protein extracts were analysed by Western blotting by the following procedures. The nitrocellulose filters containing the proteins of interest were incubated in the blocking solution for Western blotting plus 3% bovine serum albumin (BSA) or 5% milk powder (Fluka, Switzerland) for 1 h at room temperature, and then with the primary antibody diluted to its working concentration (see Table 2) in the blocking solution for Western blotting (plus BSA or milk powder). After a 2-4 h incubation at room temperature, or an overnight (O/N) incubation at 4° C., the antibody was removed and the strips were washed twice in Tween®/Tris-buffered salt solution (TTBS), for 15 min each. […] After washing the strips were incubated with the enhanced luminescence (ECL) reagents (Amersham Pharmacia Biotech, NJ, USA), according to the manufacturer instructions, and protein signals were detect by autoradiography using Kodak film.

p38 = test: Western blotting of phosphorylated p38 in LPS-stimulated monocytes; settings: 300 μM, 0.1 μg/ml LPS for 1 h
Method: (§4) Monocytes from healthy donors were incubated at 37° C. for 20 min without or with 300 μM GroPIns or GroPIns4P, and for an additional 1 h in the absence and presence of 0.1 μg/ml LPS from E. coli. Resentative Western blots are shown, as resolved using 10% SDS-PAGE, showing phosphorylated (p-) and total levels of p38 and ERK1/2. All of the blots were representative of at least three independent experiments.
as §3

ERK1/2 = test: Western blotting of phosphorylated ERK1/2 in LPS-stimulated monocytes; settings: 300 μM, 0.1 μg/ml LPS for 1 h
Method: as §4, §3

| SMILES | effect on LPS-induced TNFα mRNA expression [1] | effect on LPS-induced COX-2 mRNA expression [2] | effect on LPS-induced degradation of I-κBα [3] | phosphorylation level of p38 (p38) | phosphorylation level of ERK1/2 (ERK1/2) |
| --- | --- | --- | --- | --- | --- |
| O=P(O)(O)OC1[C@@H](O)[C@H](O)C(OP(=O)(O)OCC(O)CO)[C@@H](O)[C@H]1O (stereo partly shown) [GroPIns4P, glycerophosphoinositol 4-phosphate] | inhibited the effects of LPS on expression of all of the genes analysed | inhibited the effects of LPS on expression of all of the genes analysed | did not affect this LPS activity | did not affect the phosphorylation levels | did not affect the phosphorylation levels |
| O=P(O)(OCC(O)CO)OC1C(O)C(O)C(O)C(O)C1O (stereo not shown) [GroPIns, glycerophosphoinositol] | inhibited the effects of LPS on expression of all of the genes analysed | inhibited the effects of LPS on expression of all of the genes analysed | did not affect this LPS activity | did not affect the phosphorylation levels | did not affect the phosphorylation levels |
